In patent US7410757B1, “Method of screening disease depressant gene” (Keio University, priority 1999, dated 2008):
“Also recorded” adds a separate entry of the source. No end group written: not given here.

Columns and labels:
primary cultured neurons = assay: Etoposide-induced cell death of primary cultured neurons (trypan blue, LDH release); assay type: cell-based, mouse; conditions: 10 μM polypeptide, 20 μM etoposide, 72 h
Protocol: 25 μM Aβ1-43 was added to primary cultured cortical neurons in the presence (at indicated concentrations) or absence of sHN, sHNG, or sHNA. Addition of HN polypeptides was performed similarly to that described in FIG. 12. 72 hours after the initiation of Aβ treatment, cell death was measured by trypan blue exclusion assay. Primary cultured neurons treated similarly for 72 hours with 20 μM etoposide in the presence or absence of 10 μM sHN or HN derivatives were used as the positive controls in these experiments. Similar experiments were performed at least three times, and reproducible results were obtained. Mean ±S.D. values of three independent experiments are indicated in the graphs.
Cell damage was monitored as the amount of LDH released into the culture media. […] 24, 48, or 72 hours after the initiation of Aβ treatment, the amount of LDH in the culture media was measured. LDH release from neurons treated with 20 μM etoposide in the presence or absence of HN polypeptides was also measured. […]
Trypan blue exclusion assay was performed as follows. […] Within 3 minutes of the trypan blue solution addition, stained cells were counted. Cell mortality was determined [100−cell survival rate (%)] based on the stained cell count. […] Specific fluorescence was calculated by subtracting basal fluorescence from total fluorescence. […]

F11 cells [1] = assay: F11 cell death induced by transfection of FAD genes, trypan blue exclusion assay; assay type: cell-based
Protocol: (§1) F11 cells (Platika, D. et al. (1985) Proc. Natl. Acad. Sci. U.S.A. 82, 3499-3503; Yamatsuji, T. et al. (1996) Science 272, 1349-1352) were cultured in HamF-12 media containing 18% fetal bovine serum (FBS) and antibiotics. 7×10^4/well of F11 cells were seeded into a 6-well plate; cultured in HamF-12 containing 18% FBS for 12 to 16 hours; transfected 3 hours with plasmids encoding FAD genes and plasmids encoding HN (pHN, and such) by lipofection in the absence of serum (1 μg of FAD cDNA expression plasmid, 1 μg of HN cDNA expression plasmid, 4 μl of LipofectAMINE, 8 μl of Plus reagent); and then, were cultured for 2 hours in HamF-12 media containing 18% FBS. Then, culture media were exchanged with HamF-12 media containing 10% FBS; and the cells were cultured for additional 67 hours. 72 hours after transfection, cell death was measured by trypan blue exclusion assay. Experiments using synthetic HN polypeptides were conducted as follows: F11 cells (at 7×10^4/well in a 6-well plate) were transfected 3 hours with FAD genes in the absence of serum, as mentioned above; after cultivation for 2 hours in HamF-12 media containing 18% FBS, the cells were cultured for 67 hours in HamF-12 media containing 10% FBS with various concentrations of HN polypeptides; and cell death was measured by trypan blue exclusion assay. ALS-associated mutant cDNAs of SOD1 were also similarly transfected, and examined for their neurotoxicity.
(§2) Trypan blue exclusion assay was performed as follows. Without prewashing, the cells were suspended with gentle pipetting into a serum-free media. 50 μl of 0.4% trypan blue solution (Sigma, Cat. #T-8154) were added (final concentration of 0.08%) to 200 μl cell suspension, and the suspension was mixed at room temperature. Within 3 minutes of the trypan blue solution addition, stained cells were counted. Cell mortality was determined [100−cell survival rate (%)] based on the stained cell count. LDH assay was performed using a kit (LDH-Cytotoxic Test; Wako Pure Chemical Industries, Cat. #299-50601) by sampling 6 μl of media in which neurons were cultured. Calcein staining was performed as described in literature (Bozyczko-Coyne, D. et al. (1993) Journal of Neuroscience Methods 50, 205-216). Specifically, 6 μM Calcein-AM {3′,6′-Di-(O-acetyl)-2′,7′-bis[N,N-bis(carboxymethyl)aminomethyl]fluorescein, tetraacetoxymethyl ester; Dojindo, Cat. #349-07201} was added to the neurons; and 30 minutes or longer after Calcein-AM treatment, fluorescence (ex=490 nm, em=515 nm) was observed by fluorescence microscopy, and measured by a spectrometer. Specific fluorescence was calculated by subtracting basal fluorescence from total fluorescence. Basal fluorescence was assigned to be the value calculated from linear trypan blue positivity-fluorescence intensity relationship, corresponding to 100% trypan blue positivity.

[2] = test system: primary cultured cortical neurons; assay: Aβ1-43-induced cell death of primary cultured cortical neurons (trypan blue, LDH release, Calcein-AM, morphology); assay type: cell-based, mouse; conditions: for effect on Aβ-induced cell death and dystrophic neuritic changes of the axon: 25 μM Aβ1-43, 72 h
Protocol: Primary culture of mouse cortical neurons was performed in poly-D-lysine-coated 24-well plates (Sumitomo Bakelite) in the absence of serum and in the presence of N2 supplement, as described in literature (Eksioglu, Y. Z. et al. (1994) Brain Res. 644, 282-90). The purity of neurons prepared according to the method was >98%. The prepared neurons (1.25×10^5/well, 250 μl media/well) were preincubated in the absence or presence of 10 nM or 10 μM sHN polypeptides for 16 hours; and were treated with 25 μM Aβ1-43 in the absence or presence of sHN polypeptides at the same concentrations for 24 to 72 hours. Since primary cultured neurons are damaged even by temporary dryness during medium exchange, treatment of the cells by Aβ1-43 was performed as follows. First, half of the volume of the old medium (125 μl) was discarded. Then, 125 μl of pre-warmed fresh medium containing 50 μM Aβ1-43 and sHN with a concentration indicated above were added to the culture.
as §2

F11 cells [3] = assay: F11 cell death induced by ALS-associated SOD1 mutants (A4T, G85R, G93A), trypan blue exclusion assay; assay type: cell-based; conditions: 100 μM polypeptide, G85R or G93A SOD1
Protocol: as §1
(§3) Trypan blue exclusion assay was performed as follows. […] Within 3 minutes of the trypan blue solution addition, stained cells were counted. Cell mortality was determined [100−cell survival rate (%)] based on the stained cell count. […] Specifically, 6 μM Calcein-AM {3′,6′-Di-(O-acetyl)-2′,7′-bis[N,N-bis(carboxymethyl)aminomethyl]fluorescein, tetraacetoxymethyl ester; Dojindo, Cat. #349-07201} was added to the neurons; and 30 minutes or longer after Calcein-AM treatment, fluorescence (ex=490 nm, em=515 nm) was observed by fluorescence microscopy, and measured by a spectrometer. Specific fluorescence was calculated by subtracting basal fluorescence from total fluorescence. […]

F11/EcR cells [4] = assay: F11/EcR cell death caused by ecdysone-induced expression of FAD genes, trypan blue exclusion assay; assay type: cell-based; conditions: treated with 1M sHN (so in the source); NL-APP, V642I APP, M146L PS-1 or N141I PS-2; ecdysone 72 h
Protocol: F11/EcR cell experiment using ecdysone was conducted as follows: F11/EcR cells were seeded at 7×10^4/well into a 6-well plate; cultured for 12 to 16 hours in HamF-12 media containing 18% FBS; and were similarly transfected in the absence of serum for 3 hours with 1 μg of ecdysone-inducible plasmid alone, or with 1 μg of HN-encoding plasmid, as mentioned above. After culturing for 12 to 16 hours in HamF-12 media containing 18% FBS, the cells were cultured for 2 hours in HamF-12 media containing 10% FBS, then ecdysone (Ponasterone) was added to the media (final concentration of 40 μM). Cell death was measured 72 hours after ecdysone treatment. […] Cell death was measured by trypan blue exclusion assay after 72 hours from the ecdysone treatment. […]
as §3, with “spectrometer.” for “spectrometer. Specific fluorescence was calculated by subtracting basal fluorescence from total fluorescence.”

F11/EcR cells [5] = assay: F11/EcR cell death caused by ecdysone-induced expression of polyglutamine Q79, trypan blue exclusion assay; assay type: cell-based; conditions: 1 μM polypeptide, ecdysone 72 h
Protocol: F11/EcR cell experiment using ecdysone was conducted as follows: F11/EcR cells were seeded at 7×10^4/well into a 6-well plate; cultured for 12 to 16 hours in HamF-12 media containing 18% FBS; and were similarly transfected in the absence of serum for 3 hours with 1 μg of ecdysone-inducible plasmid alone, or with 1 μg of HN-encoding plasmid, as mentioned above. After culturing for 12 to 16 hours in HamF-12 media containing 18% FBS, the cells were cultured for 2 hours in HamF-12 media containing 10% FBS, then ecdysone (Ponasterone) was added to the media (final concentration of 40 μM). Cell death was measured 72 hours after ecdysone treatment. Experiments using synthetic HN polypeptides were conducted as follows: cells were similarly transfected for 3 hours with FAD genes in the absence of serum; cultured for 12 to 16 hours in HamF-12 media containing 18% FBS; cultured for 2 hours in HamF-12 media containing 10% FBS and various concentrations of HN polypeptide; and then, 40 μM Ponasterone was added to the media. Cell death was measured by trypan blue exclusion assay after 72 hours from the ecdysone treatment. HD/SCA-associated Q79 cDNAs were also similarly transfected, and the neurotoxicity was tested.
Trypan blue exclusion assay was performed as follows. […] Within 3 minutes of the trypan blue solution addition, stained cells were counted. Cell mortality was determined [100−cell survival rate (%)] based on the stained cell count. […] Specifically, 6 μM Calcein-AM {3′,6′-Di-(O-acetyl)-2′,7′-bis[N,N-bis(carboxymethyl)aminomethyl]fluorescein, tetraacetoxymethyl ester; Dojindo, Cat. #349-07201} was added to the neurons; and 30 minutes or longer after Calcein-AM treatment, fluorescence (ex=490 nm, em=515 nm) was observed by fluorescence microscopy, and measured by a spectrometer. Specific fluorescence was calculated by subtracting basal fluorescence from total fluorescence. Basal fluorescence was assigned to be the value calculated from linear trypan blue positivity-fluorescence intensity relationship, corresponding to 100% trypan blue positivity.

[6] = 10 μM polypeptide, 25 μM Aβ1-43

For `CC[C@H](C)[C@H](NC(=O)[C@H](CCC(=O)O)NC(=O)[C@H](CO)NC(=O)[C@@H](NC(=O)[C@H](CC(C)C)NC(=O)[C@H](CC(C)C)NC(=O)[C@H](CC(C)C)NC(=O)[C@H](CC(C)C)NC(=O)[C@H](CS)NC(=O)[C@H](CO)NC(=O)[C@H](Cc1ccccc1)NC(=O)CNC(=O)[C@H](CCCNC(=N)N)NC(=O)[C@@H]1CCCN1C(=O)[C@H](C)NC(=O)[C@@H](N)CCSC)[C@@H](C)O)C(=O)N[C@@H](CC(=O)O)C(=O)N[C@@H](CC(C)C)C(=O)N1CCC[C@H]1C(=O)N[C@H](C(=O)N[C@@H](CCCCN)C(=O)N[C@@H](CCCNC(=N)N)C(=O)N[C@@H](CCCNC(=N)N)C(=O)N[C@@H](C)C(=O)O)C(C)C` [sHN], the “prevention of the toxic effect of etoposide on primary cultured neurons” value (primary cultured neurons) was “could not prevent”, the “suppression of cell death induced by V642I APP” value (F11 cells [1]; 10 nM polypeptide, 72 h) was “extremely weak suppression” and the “suppression of cell death induced by V642I APP” value (F11 cells [1]; 10 μM polypeptide, 72 h) was “dramatically suppressed”. The “concentration achieving complete suppression of cell death induced by V642I APP” value (F11 cells [1]; 72 h) was 1 to 10 µM, the “concentration blocking neuronal death induced by NL-APP, M146L PS-1 and N141I PS-2” value (F11 cells [1]; any of the three FAD genes, 72 h) was 1 µM and the “effect on Aβ-induced cell death and dystrophic neuritic changes of the axon” value ([2]; 10 nM polypeptide) was “did not show any effect”. For the same compound, the “cell damage (LDH released from the cells) after Aβ1-43 treatment” value [2, 6] was “completely restored to a level observed under basal conditions”, the “cell death (trypan blue exclusion) after Aβ1-43 treatment” value [2, 6] was “completely restored to a level observed under basal conditions” and the “effect on Aβ-induced cell death and dystrophic neuritic changes of the axon” value ([2]; 10 μM polypeptide) was “dramatically suppressed”. The “effect of synthetic polypeptide on neuronal death induced by SOD1 mutants” value (shortened to “effect … by SOD1 mutants”) (F11 cells [3]) was “couldn't be suppressed; also recorded: lack of the effect”, the “effect of synthetic polypeptide on cell death caused by ecdysone-induced expression of FAD genes” value (F11/EcR cells [4]) was “complete suppression; also recorded: significant suppressive effect” and the “effect of synthetic polypeptide on neuronal death induced by Q79” value (“effect of synthetic polypeptide … by Q79” below) (F11/EcR cells [5]) was “not suppressed; also recorded: lack of effects”.
In the case of MAPRGFSALLLLTSEIDLPVKRRA [sHNA], the “suppression of cell death induced by V642I APP” value (F11 cells [1]; concentrations up to 100 μM) is reported as “did not significantly suppress”, the “antagonism of cell death by NL-APP, M146L PS-1 and N141I PS-2” value (F11 cells [1]; up to a concentration of 100 μM) is reported as “did not antagonize” and the “effect on Aβ-induced cell death and dystrophic neuritic changes of the axon” value ([2]; 10 μM polypeptide) is reported as “did not show any effect”. The “effect … by SOD1 mutants” value (F11 cells [3]) was “couldn't be suppressed; also recorded: lack of the effect” and the “effect of synthetic polypeptide … by Q79” value (F11/EcR cells [5]) was “Extensive cell death; also recorded: lack of effects”.
In the case of MAPRGFSCLLLLTGEIDLPVKRRA [sHNG], the “concentration giving complete antagonizing effect on cell death induced by V642I APP” value (F11 cells [1]; 72 h) is reported as at most 10 nM, the “concentration completely antagonizing neuronal death induced by all of the four different types of FAD genes” value (F11 cells [1]; V642I APP, NL-APP, M146L PS-1, N141I PS-2) is reported as at most 10 nM and the “concentration completely suppressing cell death caused by NL-APP, M146L PS-1 and N141I PS-2” value (F11 cells [1]; any of the FAD genes, 72 h) is reported as at most 10 nM. The “enhancement of the action of HN by S14G substitution” value (F11 cells [1]; relative to original HN) was 100 to 1000 fold, the “effect on Aβ-induced cell death and dystrophic neuritic changes of the axon” value ([2]; 10 nM polypeptide) was “completely protected” and the “effect … by SOD1 mutants” value (F11 cells [3]) was “couldn't be suppressed; also recorded: lack of the effect”. The “effect of synthetic polypeptide on cell death caused by ecdysone-induced expression of FAD genes” value (F11/EcR cells [4]) was “complete suppression” and the “effect of synthetic polypeptide … by Q79” value (F11/EcR cells [5]) was “Extensive cell death; also recorded: lack of effects”.
In the case of “NGF: NGF tested at 100 ng/ml as comparator [reference compound]”, the “antagonism of cell death of neurons induced by Aβ” value ([2]; 100 ng/ml, data not shown) is reported as “did not show effects to antagonize” and the “antagonism of increased LDH release induced by Aβ” value ([2]; 100 ng/ml, data not shown) is reported as “did not show effects to antagonize”.
